Laboratory results reported in ChEMBL document CHEMBL3046607, “Synthesis and Herbicidal Activity of New 1-Alkyl-3-aryloxypyrazole-4-carboxamide Derivatives” (J Pestic Sci, 2004).
Calls of active or inactive are those of the source. The calls are words filed in the database; no cut-off is given here.

Key:
Elatine triandra [1] = assay: Post-emergence herbicidal activity against Elatine triandra assessed as bleaching of stem/leaf parts; format: functional, organism-based; further: test concentration or dose not given here
Ammannia multiflora [2] = assay: Post-emergence herbicidal activity against Ammannia multiflora assessed as bleaching of stem/leaf parts; format: functional, organism-based
Rotala indica [3] = assay: Post-emergence herbicidal activity against Rotala indica assessed as bleaching of stem/leaf parts; format: functional, organism-based
Lindernia procumbens [4] = assay: Post-emergence herbicidal activity against Lindernia procumbens assessed as bleaching of stem/leaf parts; format: functional, organism-based; further: test concentration or dose not given here
[5] = system: Schoenoplectiella juncoides; assay: Post-emergence herbicidal activity against Schoenoplectiella juncoides assessed as bleaching of stem/leaf parts; format: functional, organism-based; further: test concentration or dose not given here
Oryza sativa = assay: Phytotoxicity against Oryza sativa cv. Koshihikari (rice) at 33 g a.i/ha measured after 14 days; format: organism-based; settings: in vivo, 336 h
Ammannia multiflora [6] = assay: Pre-emergence herbicidal activity against Ammannia multiflora at 33 g a.i/ha measured after 14 days; format: functional, organism-based
Elatine triandra [7] = assay: Pre-emergence herbicidal activity against Elatine triandra at 33 g a.i/ha measured after 14 days; format: functional, organism-based
Rotala indica [8] = assay: Pre-emergence herbicidal activity against Rotala indica at 33 g a.i/ha measured after 14 days; format: functional, organism-based
Lindernia procumbens [9] = assay: Pre-emergence herbicidal activity against Lindernia procumbens at 33 g a.i/ha measured after 14 days; format: functional, organism-based
[10] = system: Schoenoplectiella juncoides; assay: Pre-emergence herbicidal activity against Schoenoplectiella juncoides at 33 g a.i/ha measured after 14 days; format: functional, organism-based
Pontederia vaginalis [11] = assay: Pre-emergence herbicidal activity against Monochoria vaginalis at 33 g a.i/ha measured after 14 days; format: functional, organism-based
Cyperus difformis [12] = assay: Pre-emergence herbicidal activity against Cyperus difformis at 33 g a.i/ha measured after 14 days; format: functional, organism-based
Echinochloa oryzicola [13] = assay: Pre-emergence herbicidal activity against Echinochloa oryzicola at 33 g a.i/ha measured after 14 days; format: functional, organism-based
Lindernia procumbens [14] = assay: Pre-emergence herbicidal activity against Lindernia procumbens assessed as bleaching of stem/leaf parts; format: functional, organism-based
Pontederia vaginalis [15] = assay: Pre-emergence herbicidal activity against Monochoria vaginalis assessed as bleaching of stem/leaf parts; format: functional, organism-based
[16] = system: Schoenoplectiella juncoides; assay: Pre-emergence herbicidal activity against Schoenoplectiella juncoides assessed as bleaching of stem/leaf parts; format: functional, organism-based
Cyperus difformis [17] = assay: Pre-emergence herbicidal activity against Cyperus difformis assessed as bleaching of stem/leaf parts; format: functional, organism-based
Echinochloa oryzicola [18] = assay: Pre-emergence herbicidal activity against Echinochloa oryzicola assessed as bleaching of stem/leaf parts; format: functional, organism-based
Cyperus difformis [19] = assay: Post-emergence herbicidal activity against Cyperus difformis assessed as bleaching of stem/leaf parts; format: functional, organism-based; further: test concentration or dose not given here
Pontederia vaginalis [20] = assay: Post-emergence herbicidal activity against Monochoria vaginalis assessed as bleaching of stem/leaf parts; format: functional, organism-based
Echinochloa oryzicola [21] = assay: Post-emergence herbicidal activity against Echinochloa oryzicola assessed as bleaching of stem/leaf parts; format: functional, organism-based
Ammannia multiflora [22] = assay: Pre-emergence herbicidal activity against Ammannia multiflora assessed as bleaching of stem/leaf parts; format: functional, organism-based
Elatine triandra [23] = assay: Pre-emergence herbicidal activity against Elatine triandra assessed as bleaching of stem/leaf parts; format: functional, organism-based
Rotala indica [24] = assay: Pre-emergence herbicidal activity against Rotala indica assessed as bleaching of stem/leaf parts; format: functional, organism-based

Compound | Activity (Elatine triandra [1]) | Activity (Ammannia multiflora [2]) | Activity (Rotala indica [3]) | Activity (Lindernia procumbens [4]) | Activity [5] | Activity (Oryza sativa) | Activity (Ammannia multiflora [6]) | Activity (Elatine triandra [7]) | Activity (Rotala indica [8]) | Activity (Lindernia procumbens [9]) | Activity [10] | Activity (Pontederia vaginalis [11]) | Activity (Cyperus difformis [12]) | Activity (Echinochloa oryzicola [13]) | Activity (Lindernia procumbens [14]) | Activity (Pontederia vaginalis [15]) | Activity [16] | Activity (Cyperus difformis [17]) | Activity (Echinochloa oryzicola [18]) | Activity (Cyperus difformis [19]) | also measured
Cn1cc(C(=O)Nc2ccccc2F)c(Oc2cccc(C(F)(F)F)c2)n1 | Active | Active | Active | Active | Active | Non-toxic | Active | Active | Active | Active | inactive | Active | Active | Active | Active | Active | Active | Active | Active | Active | Activity (Pontederia vaginalis [20]): Active; Activity (Echinochloa oryzicola [21]): Active; Activity (Ammannia multiflora [22]): Active; Activity (Elatine triandra [23]): Active; Activity (Rotala indica [24]): Active
Cn1cc(C(=O)Nc2ccc(Cl)cc2Cl)c(Oc2cccc(C(F)(F)F)c2)n1 | Active | Active | Active | Active | Active | Non-toxic | Active | Active | Active | Active | inactive | Active | Active | inactive | Active | Active | Active | Active | Active | Active | Activity (Pontederia vaginalis [20]): Active; Activity (Echinochloa oryzicola [21]): Active; Activity (Ammannia multiflora [22]): Active; Activity (Elatine triandra [23]): Active; Activity (Rotala indica [24]): Active
CCCCn1cc(C(=O)Nc2ccc(F)cc2F)c(Oc2cccc(C(F)(F)F)c2)n1 | Active | Active | Active | Active | Active | Non-toxic | inactive | inactive | inactive | inactive | inactive | inactive | inactive | inactive | Active | Active | Active | Active | Active | Active | Activity (Pontederia vaginalis [20]): Active; Activity (Echinochloa oryzicola [21]): Active; Activity (Ammannia multiflora [22]): Active; Activity (Elatine triandra [23]): Active; Activity (Rotala indica [24]): Active
Cc1ccccc1NC(=O)c1cn(C)nc1Oc1cccc(C(F)(F)F)c1 | Active | Active | Active | Active | Active | Non-toxic | Active | Active | Active | Active | inactive | Active | Active | inactive | Active | Active | Active | Active | Active | Active | Activity (Pontederia vaginalis [20]): Active; Activity (Echinochloa oryzicola [21]): Active; Activity (Ammannia multiflora [22]): Active; Activity (Elatine triandra [23]): Active; Activity (Rotala indica [24]): Active
Cn1cc(C(=O)Nc2ccc(Cl)cc2F)c(Oc2cccc(C(F)(F)F)c2)n1 | Active | Active | Active | Active | Active | Non-toxic | Active | Active | Active | Active | inactive | Active | Active | inactive | Active | Active | Active | Active | Active | Active | Activity (Pontederia vaginalis [20]): Active; Activity (Echinochloa oryzicola [21]): Active; Activity (Ammannia multiflora [22]): Active; Activity (Elatine triandra [23]): Active; Activity (Rotala indica [24]): Active
Cn1cc(C(=O)Nc2cccc(F)c2F)c(Oc2cccc(C(F)(F)F)c2)n1 | Active | Active | Active | Active | Active | Non-toxic | Active | Active | Active | Active | inactive | Active | Active | inactive | Active | Active | Active | Active | Active | Active | Activity (Pontederia vaginalis [20]): Active; Activity (Echinochloa oryzicola [21]): Active; Activity (Ammannia multiflora [22]): Active; Activity (Elatine triandra [23]): Active; Activity (Rotala indica [24]): Active
CC(C)n1cc(C(=O)Nc2ccc(F)cc2F)c(Oc2cccc(C(F)(F)F)c2)n1 | Active | Active | Active | Active | Active | Non-toxic | inactive | inactive | inactive | inactive | inactive | inactive | inactive | inactive | Active | Active | Active | Active | Active | Active | Activity (Pontederia vaginalis [20]): Active; Activity (Echinochloa oryzicola [21]): Active; Activity (Ammannia multiflora [22]): Active; Activity (Elatine triandra [23]): Active; Activity (Rotala indica [24]): Active
